Key:
[1] = target: T1, acyl-CoA: cholesterol acyltransferase (ACAT) (Rattus norvegicus, UniProt Q7TQM4); assay: ACAT inhibition in vitro (LAI): radiolabeled cholesterol oleate formed from radiolabeled oleic acid in rat liver microsomes; type: biochemical; conditions: concentration required to inhibit the activity of the enzyme by 50%
T1 construct: tissue preparation containing rat liver microsomes; from tissue; host or cells: rat liver microsomes
T1 sequence (Q7TQM4 1-524): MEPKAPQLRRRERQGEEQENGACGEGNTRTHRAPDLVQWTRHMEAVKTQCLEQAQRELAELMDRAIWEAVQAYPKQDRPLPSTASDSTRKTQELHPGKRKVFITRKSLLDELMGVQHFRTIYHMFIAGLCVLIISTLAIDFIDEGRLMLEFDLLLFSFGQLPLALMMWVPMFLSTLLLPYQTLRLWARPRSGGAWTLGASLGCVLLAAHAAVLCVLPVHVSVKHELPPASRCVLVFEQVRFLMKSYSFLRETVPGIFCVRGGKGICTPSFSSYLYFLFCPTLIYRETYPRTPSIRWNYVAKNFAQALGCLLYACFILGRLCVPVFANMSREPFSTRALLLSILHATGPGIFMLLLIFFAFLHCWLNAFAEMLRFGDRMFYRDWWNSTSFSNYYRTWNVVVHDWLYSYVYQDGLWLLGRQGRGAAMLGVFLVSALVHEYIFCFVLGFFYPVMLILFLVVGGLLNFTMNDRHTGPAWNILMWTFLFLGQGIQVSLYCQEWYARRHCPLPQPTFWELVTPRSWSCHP
Experimental: The ability of representative compounds of the present invention to inhibit ACAT was measured using an in vitro test more fully described in F. J. Field and R. G. Salone, Biochemica et Biophysica Acta, 712:557-570 (1982). The test assesses the ability of a test compound to inhibit the acylation of cholesterol by oleic acid by measuring the amount of radiolabeled cholesterol oleate formed from radiolabeled oleic acid in a tissue preparation containing rat liver microsomes (designated LAI).

[2] = APCC in vivo screen: change in total cholesterol in rats on high fat, high cholesterol diet; parameters: species or system male Sprague-Dawley rats; conditions: Rattus norvegicus, po, 16 h; 30 mg/kg by gavage, single dose at 4 PM, sacrificed at 8 AM; 5.5% peanut oil, 1.5% cholesterol, 0.5% cholic acid diet; vs control animals given vehicle and diet only; read-out: APCC (% change in TC)
From the text: In one in vivo screen designated APCC, male Sprague-Dawley rats (200-225 g body weight) were randomly divided into treatment groups and dosed at 4 PM with either vehicle (CMC/Tween) or suspensions of invention compounds in vehicle. The normal chow diet was then replaced with a high fat, high cholesterol diet (5.5% peanut oil, 1.5% cholesterol, and 0.5% cholic acid). The rats consumed this diet ad libitum during the night and were sacrificed at 8 AM to obtain blood samples for cholesterol analysis using standard procedures. Statistical differences between mean cholesterol values for the same vehicle were determined using analysis of variance followed by Fisher's least significant test. The results of this trial for representative compounds of the present invention also appear in Table I as the percent change in total cholesterol (%TC) from control animals given vehicle and diet only. All compounds in the APCC test reported in Table 1 were administered by garage at 30 mg/kg.

Compound	IC50 [1]	change in vivo at 30 mg/kg [2]
CCCCCCCCCCCCn1nnc(C(C(=O)Nc2c(C(C)C)cccc2C(C)C)N2CCSCC2)n1 (racemic) [Example 1, (±)-N-(2,6-diisopropylphenyl) -2-(2-dodecyl-2H-tetrazol-5-yl) -2-thiomorpholin-4-yl-acetamide]	12 nM	-56%
CCCCCCCCCCCCn1nnc(C(C(=O)Nc2c(C(C)C)cccc2C(C)C)N2CCOCC2)n1 (racemic) [Example 2, (±)-N-(2,6-Diisopropylphenyl)-2-(2-dodecyl-2H-tetrazol-5-yl)-2-morpholino-4-yl-acetamide]	18 nM	-57%
CCCCCCCCCCCCn1nnc(C(C(=O)Nc2c(C(C)C)cccc2C(C)C)N2CCCCC2)n1 (racemic) [Example 3, (±)-N-(2,6-Diisopropylphenyl)-2-(2-dodecyl-2H-tetrazol-5-yl)-2-piperidin-1-yl-acetamide]	15 nM	-47%
CCCCCCCCCCCCn1nnc(C(C(=O)Nc2c(C(C)C)cccc2C(C)C)N2CCCC2)n1 (racemic) [Example 4, (±) -N-(2,6-Diisopropylphenyl)-2-(2-dodecyl-2H-tetrazol-5-yl) -2-pyrrolidinyl-1-yl-acetamide]	9 nM	-59%
CCCCCCCCCCCCn1nnc(C(C(=O)Nc2c(C(C)C)cccc2C(C)C)n2ccnc2)n1 (racemic) [Example 5, (±)-N-(2,6-Diisopropylphenyl)-2-(2-dodecyl-2H-tetrazol-5-yl) -2-imidazol-1-yl-acetamide]	215 nM	-46%
CCCCCCCCCCCCn1nnc(C(C(=O)Nc2c(C(C)C)cccc2C(C)C)N2CCN(C)CC2)n1 (racemic) [Example 6, (±)-N-(2,6-Diisopropylphenyl)-2-(2-dodecyl-2-tetrazol-5-yl)-2-(4-methyl-piperazin-1-yl)-acetamide]	86 nM	-51%
CCCCCCCCCCCCn1nnc(C(C(=O)Nc2c(C(C)C)cccc2C(C)C)N(CC)CC)n1 (racemic) [Example 7, (±)-2-Diethylamino-N-(2,6-diisopropylphenyl) -2-(2-dodecyl-2H-tetrazol-5-yl)-acetamide]	32 nM	-28%
CCCCCCCCCCCCn1nnc(C(C(=O)Nc2c(C(C)C)cccc2C(C)C)N(CCO)CCO)n1 (racemic) [Example 8, (±)-2-[Bis-(2-hydroxyethyl)-amino]-N-(2,6-diisopropylphenyl) -2-(2-dodecyl-2H-tetrazol-5-yl)-acetamide]	390 nM	-11%
CCCCCCCCCCCCn1nnc(C(C(=O)Nc2c(C(C)C)cccc2C(C)C)N(C)C)n1 (racemic) [Example 9, (±)-N-(2,6-Diisopropylphenyl)-2-dimethylamino-(2-dodecyl-2H-tetrazol-5-yl)-acetamide]	40 nM	-40%
CCCCCCCCCCCCn1nnc(C(N)C(=O)Nc2c(C(C)C)cccc2C(C)C)n1 (racemic) [Example 10, (±)-2-Amino-N-(2,6-diisopropylphenyl)-2-(2-dodecyl-2H-tetrazol-5-yl)-acetamide]	94 nM	-51%
CCCCCCCCCCCCn1nnc(C(C(=O)Nc2c(OC)cc(OC)cc2OC)N2CCCC2)n1 (racemic) [Example 17, (±)-N-(2,4,6-trimethoxyphenyl) -2-(2-dodecyl-2H-tetrazol-5-yl)-2-pyrrolidin-1-yl-acetamide]	40 nM	-67%
CCCCCCCCCCCCn1nnc(C(C(=O)Nc2c(C(C)C)cc(C(C)C)cc2C(C)C)N2CCCC2)n1 (racemic) [Example 18, (±)-N-2,4,6-triisopropylphenyl-2-(2-dodecyl-2H-tetrazol-5-yl)-2-pyrrolidin-1-yl-acetamide]	222 nM	-20%
CCCCCCCCCCCCn1nnc(C(NC(C)=O)C(=O)Nc2c(C(C)C)cccc2C(C)C)n1 (racemic) [Example 32, (±)-N-(2,6-diisopropylphenyl)-2-(2-dodecyl-2H-tetrazol-5-yl)-2-acetylamino-acetamide]	> 1000 nM	-9%
CCCCCCCCCCCCn1nnc(C(NC2CCCCC2)C(=O)Nc2c(C(C)C)cccc2C(C)C)n1 (racemic) [Example 36, (±)-N-(2,6-diisopropylphenyl)-2-(2-dodecyl-2H-tetrazol-5-yl)-2-cyclohexylamino-acetamide]	212 nM	–
CCCCCCCCCCCCn1nnc(C(=O)C(=O)Nc2c(C(C)C)cccc2C(C)C)n1 [Example 11, N-(2,6-diisopropylphenyl)-2-(2-dodecyl-2H-tetrazol-5-yl)-2-oxo-acetamide]	135 nM	-50%
CCCCCCCCCCCCn1nnc(C(=NO)C(=O)Nc2c(C(C)C)cccc2C(C)C)n1 [Example 12, N-(2,6-diisopropylphenyl)-2-(2-dodecyl-2H-tetrazol-5-yl)-2-hydroxyimino-acetamide]	29 nM	–
CCCCCCCCCCCCn1nnc(/C(=N\OC)C(=O)Nc2c(C(C)C)cccc2C(C)C)n1 [Example 13, E-N-(2,6-Diisopropylphenyl)-2-(2-dodecyl-2H-tetrazol-5-yl)-2-methoxyimino-acetamide]	2 nM	-43%
CCCCCCCCCCCCn1nnc(/C(=N/OC)C(=O)Nc2c(C(C)C)cccc2C(C)C)n1 [Example 14, Z-N-(2,6-diisopropylphenyl) -2-(2-dodecyl-2H-tetrazol-5-yl)-2-methoxyiminoacetamide]	40 nM	-19%
CCCCCCCCCCCCn1nnc(/C(=N\OC)C(=O)Nc2c(OC)cc(OC)cc2OC)n1 [Example 15, E-2-(2-Dodecyl-2H-tetrazol-5-yl)-2-methoxyimino -N-(2,4,6-trimethoxyphenyl)-acetamide]	28 nM	-70%
CCCCCCCCCCC(C)n1nnc(/C(=N\OC)C(=O)Nc2c(C(C)C)cccc2C(C)C)n1 (stereo not shown) [Example 16, E-N-(2,6-Diisopropylphenyl)-2-(2-(1-methylundecyl) -2H-tetrazol-5-yl)-2-methoxyimino-acetamide]	3 nM	-67%
CCCCCCCCCCCCn1nnc(/C(=N/OCC)C(=O)Nc2c(C(C)C)cccc2C(C)C)n1 [Example 23, Z-N-(2,6-diisopropylphenyl) -2-(2-dodecyl-2H-tetrazol-5-yl)-2-ethoxyimino-acetamide]	2 nM	-74%
CCCCCCCCCCCCn1nnc(/C(=N\OCC)C(=O)Nc2c(C(C)C)cccc2C(C)C)n1 [Example 24, E-isomer of N-(2,6-diisopropylphenyl)-2-(2-dodecyl-2H-tetrazol-5-yl)-2-ethoxyimino-acetamide]	49 nM	-31%
CCCCCCCCCCCCn1nnc(C(=NN)C(=O)Nc2c(C(C)C)cccc2C(C)C)n1 [Example 27, N-(2,6-diisopropylphenyl)-2-(2 dodecyl-2H-tetrazol-5-yl)-2-hydrazono-acetamide]	510 nM	–
CCCCCCCCCCCCn1nnc(C(=NNc2ccccc2)C(=O)Nc2c(C(C)C)cccc2C(C)C)n1 [Example 28, N-(2,6-diisopropylphenyl)-2-(2-dodecyl-2H-tetrazol-5-yl)-2-phenylhydrazono-acetamide]	150 nM	-18%
CCCCCCCCCCCCn1nnc(C(=NN(C)C)C(=O)Nc2c(C(C)C)cccc2C(C)C)n1 [Example 29, N-(2,6-diisopropylphenyl)-2-(2-dodecyl-2H-tetrazol-5-yl)-2-dimethylhydrazono-acetamide]	43 nM	-70%
CCCCCCCCCCCCn1nnnc1/C(=N\OCC)C(=O)Nc1c(C(C)C)cccc1C(C)C [Example 41, E-N-(2,6-Diisopropylphenyl)-2-(1-dodecyl-1H-tetrazol-5-yl)-2-ethoxyimino-acetamide]	25 nM	-65%

Source: patent US5461049A, “Amide tetrazole ACAT inhibitors” (Warner-Lambert Company, priority 1994, dated 1995)
